# Source: ChEMBL document CHEMBL5579871, “Novel Papain-Like Protease Inhibitors for Treating Viral Infections, in particular, Coronavirus Infections” (ACS Med Chem Lett, 2024)
# Molecular target: Replicase polyprotein 1ab (Severe acute respiratory syndrome coronavirus 2, UniProt P0DTD1)
# Experiment: Inhibition of SARS-CoV-2 papain-like protease using Z-RLRGG-AMC as fluorogenic substrate preincubated for 30 mins followed by substrate addition and measured after 60 mins by plate reader assay
row,SMILES,IC50 [nM]
1,Cc1ccc(N2CCN(C)CC2)cc1C(=O)N[C@H](C)c1cc(-c2cnn(C)c2)cc(-c2cccs2)c1,4
2,Cc1cc(C(=O)NCc2cscn2)ccc1C(=O)N[C@H](C)c1cc(-c2cnn(C)c2)cc(-c2ccns2)c1,3
3,Cc1ccc(NC(=O)[C@H]2CCCCN2)cc1C(=O)N[C@H](C)c1cc(-c2cnn(C)c2)cc(-c2cccs2)c1,4
4,Cc1ccc(N2CCN(C)CC2)cc1C(=O)N[C@H](C)c1cc(-c2cnn(C)c2)cc(-c2cc(Cl)cnc2N)c1,3
5,Cc1cc(CNCc2cscn2)ccc1C(=O)N[C@H](C)c1cc(-c2cnn(C)c2)cc(-c2ccns2)c1,3
6,Cc1ccc(N2CCNCC2)cc1C(=O)N[C@H](C)c1cc(-c2cnn(C)c2)cc(-c2cc(Cl)cnc2N)c1,4
